{"source": "patent US20220324835A1", "about": "(Nurix Therapeutics, Inc., priority 2018, published 2022)", "key": {"primary human B cells": {"system": "primary human B cells", "assay": "B cell activation assay (CD69 on anti-IgM stimulated B cells)", "type": "cell-based", "settings": "AUC of dose response curve (10 μM to 1 nM) of CD69 MFI normalized to DMSO control", "description": "Peripheral blood mononuclear cells (PBMC) were obtained either: 1) by using Ficoll-Paque™ (GE Healthcare) for separation of peripheral blood hematopoietic cells from buffy coats of healthy human donors; or 2) directly from LeukoPak donations. Human primary B cells were isolated from the PBMCs utilizing negative selection with commercial kits following the manufacturer's protocol (StemCells Catalog #17954) to yield >95% CD20+ cells assessed by flow cytometry. Primary human B cells were plated at 0.7-1×10^5 per well in a 96-well plate with Cbl-b inhibitors over a dose ranging from 10 μM to 1 nM and incubated at 37° C. 5% CO2, with a final DMSO concentration of <0.5%. Cells were stimulated with anti-IgM for 20 hours at 37° C. 5% CO2. Surface activation markers on mature CD20^+ IgD^+ B cells were monitored by FACS using an anti-CD69 antibody (BD Biosciences).\nCbl-b inhibitors were tested to determine their ability to induce or enhance surface expression of cell surface markers on B cells (e.g., CD69), which is indicative of B cell activation.\nReadouts were reported as area under curve (AUC) of the dose response curve of CD69 mean fluorescence intensity (MFI) normalized to the DMSO control. Baseline for this study was the measurement obtained from primary human B cells treated with DMSO in the presence of 2.5 μg/mL of anti-IgM-F(ab′)2. […] Compounds were ranked into bins according to their readouts as follows: A indicates ≤0.5, B indicates 0.5-1.00, C indicates 1.01-1.50, and D indicates ≥1.51."}, "anergic human T-cells": {"system": "anergic human T-cells", "assay": "Anergic T-cell activation assessed by IFNγ secretion (ionomycin-induced anergy)", "type": "cell-based", "settings": "anergic T-cells re-challenged with anti-CD3 and anti-CD28 for 24 hours, read-out: IFNγ Fold change from baseline", "excerpt": "Peripheral blood mononuclear cells (PBMC) were obtained either: 1) by using Ficoll-Paque™ (GE Healthcare) for separation of peripheral blood hematopoietic cells from buffy coats of healthy human donors; or 2) directly from LeukoPak donations. Total human primary T-cells were isolated from the PBMCs utilizing negative selection with commercial kits following the manufacturer's protocol (Miltenyi Catalog #130-096-535 (i.e., cocktail of antibodies against surface markers CD14, CD15, CD16, CD19, CD34, CD36, CD56, CD123 and CD235a were incubated with the PBMCs before passing the samples by magnetic beads for removal of cells expressing those surface markers) or StemCells Catalog #17951) to yield >95% CD3+ cells assessed by flow cytometry. The cells were activated with immobilized anti-CD3 antibody (OKT3) and soluble anti-CD28 antibody (28.2) for two days at which time they are washed and allowed to rest for three days in the absence of stimulation. They were then treated with ionomycin (Sigma) for 18-24 hours to induce anergy. Following two washes to remove the ionomycin from the samples, Cbl-b inhibitor compounds were added to the cells at the indicated concentrations (e.g. 10, 1.11 and 0.37 μM) and incubated for 1 hour. The cells were then re-challenged with anti-CD3 antibody and anti-CD28 antibody for 24 hours at which point cell free supernatants were collected and assessed for cytokines (e.g., IFNγ) by ELISA (R&D Systems or Peprotech) or Luminex multiplex kits (Procarta Life Technologies) following manufacturer's protocols.\nCbl-b inhibitors were tested to determine their ability to induce or enhance secretion of cytokines from anergic T-cells (e.g. IFNγ), which is indicative of decreased T-cell tolerance.\nReadouts were reported as fold change over baseline. Baseline for this study was the measurement obtained from anergic human T-cells stimulated with immobilized anti-CD3 and soluble anti-CD28, wherein the T-cells were not incubated with a Cbl-b inhibitor (Table 7). For IFNγ changes greater than 2.5-fold over baseline were considered a positive response (Table 7). Compounds were ranked into bins according to their readout as follows for IFNγ: A indicates ≤2.50, B indicates 2.51-4.00 and C indicates >4.01."}}}
{"smiles": "Cn1cnnc1C(F)(F)[C@](C)(F)c1cccc(N2Cc3c(cc(C(=O)N4CC[C@H](O)C4)cc3C(F)(F)F)C2=O)c1", "note": "[Compound 438, 6-((S)-3-hydroxypyrrolidine-1-carbonyl)-2-(3-((R)-1,1,2-trifluoro-1-(4-methyl-4H-1,2,4-triazol-3-yl)propan-2-yl)phenyl)-4-(trifluoromethyl)isoindolin-1-one]", "values": [{"measurement": "CD69 MFI AUC", "setting": "primary human B cells", "value": "A (A indicates ≤0.5)"}, {"measurement": "fold induction at 0.37 µM", "setting": "anergic human T-cells", "value": "≤ 2.5"}, {"measurement": "fold induction at 1.11 µM", "setting": "anergic human T-cells", "value": "≤ 2.5"}, {"measurement": "fold induction at 10 µM", "setting": "anergic human T-cells", "value": "> 4.01"}]}
{"smiles": "Cn1cnnc1C(F)(F)[C@](C)(F)c1cccc(N2Cc3c(cc(N4CCNCC4)cc3C(F)(F)F)C2=O)c1", "note": "[Compound 442, (R)-6-(Piperazin-1-yl)-2-(3-(1,1,2-trifluoro-1-(4-methyl-4H-1,2,4-triazol-3-yl)propan-2-yl)phenyl)-4-(trifluoromethyl)isoindolin-1-one]", "values": [{"measurement": "CD69 MFI AUC", "setting": "primary human B cells", "value": "B (B indicates 0.5-1.00)"}, {"measurement": "fold induction at 0.37 µM", "setting": "anergic human T-cells", "value": "≤ 2.5"}, {"measurement": "fold induction at 1.11 µM", "setting": "anergic human T-cells", "value": "2.51 to 4"}, {"measurement": "fold induction at 10 µM", "setting": "anergic human T-cells", "value": "2.51 to 4"}]}
{"smiles": "Cn1cnnc1C(F)(F)[C@](C)(F)c1cccc(N2Cc3c(cc(CN4CC[C@@H](F)C4)cc3C(F)(F)F)C2=O)c1", "note": "[Compound 450]", "values": [{"measurement": "CD69 MFI AUC", "setting": "primary human B cells", "value": "C (C indicates 1.01-1.50)"}, {"measurement": "fold induction at 0.37 µM", "setting": "anergic human T-cells", "value": "2.51 to 4"}, {"measurement": "fold induction at 1.11 µM", "setting": "anergic human T-cells", "value": "2.51 to 4"}, {"measurement": "fold induction at 10 µM", "setting": "anergic human T-cells", "value": "> 4.01"}]}
{"smiles": "COC1CN(Cc2cc3c(c(C(F)(F)F)c2)CN(c2cccc([C@@](C)(F)C(F)(F)c4nncn4C)c2)C3=O)C1", "note": "[Compound 452, (R)-6-((3-methoxyazetidin-1-yl)methyl)-2-(3-(1,1,2-trifluoro-1-(4-methyl-4H-1,2,4-triazol-3-yl)propan-2-yl)phenyl)-4-(trifluoromethyl)isoindolin-1-one]", "values": [{"measurement": "CD69 MFI AUC", "setting": "primary human B cells", "value": "D (D indicates ≥1.51)"}, {"measurement": "fold induction at 0.37 µM", "setting": "anergic human T-cells", "value": "≤ 2.5"}, {"measurement": "fold induction at 1.11 µM", "setting": "anergic human T-cells", "value": "2.51 to 4"}, {"measurement": "fold induction at 10 µM", "setting": "anergic human T-cells", "value": "> 4.01"}]}
{"smiles": "Cn1cnnc1C(F)(F)[C@](C)(F)c1cccc(N2Cc3c(cc(CN4CC[C@@H](C#N)C4)cc3C(F)(F)F)C2=O)c1", "note": "[Compound 455, (R)-1-((3-oxo-2-(3-((R)-1,1,2-trifluoro-1-(4-methyl-4H-1,2,4-triazol-3-yl)propan-2-yl)phenyl)-7-(trifluoromethyl)isoindolin-5-yl)methyl)pyrrolidine-3-carbonitrile]", "values": [{"measurement": "CD69 MFI AUC", "setting": "primary human B cells", "value": "C (C indicates 1.01-1.50)"}, {"measurement": "fold induction at 0.37 µM", "setting": "anergic human T-cells", "value": "≤ 2.5"}, {"measurement": "fold induction at 1.11 µM", "setting": "anergic human T-cells", "value": "2.51 to 4"}, {"measurement": "fold induction at 10 µM", "setting": "anergic human T-cells", "value": "> 4.01"}]}
{"smiles": "C[C@H](Cc1nncn1C)c1cccc(NC(=O)c2cc3cc(N4CCNCC4)ccc3cn2)c1", "note": "[Compound 472, N-{3-[(2R)-1-(4-methyl-4H-1,2,4-triazol-3-yl)propan-2-yl]phenyl}-6-(piperazin-1-yl)isoquinoline-3-carboxamide]", "values": [{"measurement": "CD69 MFI AUC", "setting": "primary human B cells", "value": "C (C indicates 1.01-1.50)"}, {"measurement": "fold induction at 0.37 µM", "setting": "anergic human T-cells", "value": "≤ 2.5"}, {"measurement": "fold induction at 1.11 µM", "setting": "anergic human T-cells", "value": "≤ 2.5"}, {"measurement": "fold induction at 10 µM", "setting": "anergic human T-cells", "value": "2.51 to 4"}]}
{"smiles": "Cn1cnnc1CC1(c2cccc(NC(=O)c3cc(CN4CCC5(CC5)C4)cc(C4CC4)n3)c2)COC1", "note": "[Compound 519, 4-((5-azaspiro[2.4]heptan-5-yl)methyl)-6-cyclopropyl-N-(3-(3-((4-methyl-4H-1,2,4-triazol-3-yl)methyl)oxetan-3-yl)phenyl)picolinamide]", "values": [{"measurement": "CD69 MFI AUC", "setting": "primary human B cells", "value": "D (D indicates ≥1.51)"}, {"measurement": "fold induction at 0.37 µM", "setting": "anergic human T-cells", "value": "> 4.01"}, {"measurement": "fold induction at 1.11 µM", "setting": "anergic human T-cells", "value": "> 4.01"}, {"measurement": "fold induction at 10 µM", "setting": "anergic human T-cells", "value": "> 4.01"}]}
{"smiles": "Cn1cnnc1CC1(c2cccc(N3Cc4c(cc(CN5CCC6(CC6)C5)cc4C(F)(F)F)C3=O)c2)COC1", "note": "[Compound 520, 6-((5-azaspiro[2.4]heptan-5-yl)methyl)-2-(3-(3-((4-methyl-4H-1,2,4-triazol-3-yl)methyl)oxetan-3-yl)phenyl)-4-(trifluoromethyl)isoindolin-1-one]", "values": [{"measurement": "CD69 MFI AUC", "setting": "primary human B cells", "value": "D (D indicates ≥1.51)"}, {"measurement": "fold induction at 0.37 µM", "setting": "anergic human T-cells", "value": "≤ 2.5"}, {"measurement": "fold induction at 1.11 µM", "setting": "anergic human T-cells", "value": "2.51 to 4"}, {"measurement": "fold induction at 10 µM", "setting": "anergic human T-cells", "value": "> 4.01"}]}
